In the first assay the target is T1, Sodium-dependent dopamine transporter (Rattus norvegicus, UniProt P23977). The assay can be described thus: Binding affinity against Dopamine transporter using [3H]WIN-35 428 in rat striatum. In kind it is tissue-based.
Sequence of Sodium-dependent serotonin transporter (P31652 whole entry): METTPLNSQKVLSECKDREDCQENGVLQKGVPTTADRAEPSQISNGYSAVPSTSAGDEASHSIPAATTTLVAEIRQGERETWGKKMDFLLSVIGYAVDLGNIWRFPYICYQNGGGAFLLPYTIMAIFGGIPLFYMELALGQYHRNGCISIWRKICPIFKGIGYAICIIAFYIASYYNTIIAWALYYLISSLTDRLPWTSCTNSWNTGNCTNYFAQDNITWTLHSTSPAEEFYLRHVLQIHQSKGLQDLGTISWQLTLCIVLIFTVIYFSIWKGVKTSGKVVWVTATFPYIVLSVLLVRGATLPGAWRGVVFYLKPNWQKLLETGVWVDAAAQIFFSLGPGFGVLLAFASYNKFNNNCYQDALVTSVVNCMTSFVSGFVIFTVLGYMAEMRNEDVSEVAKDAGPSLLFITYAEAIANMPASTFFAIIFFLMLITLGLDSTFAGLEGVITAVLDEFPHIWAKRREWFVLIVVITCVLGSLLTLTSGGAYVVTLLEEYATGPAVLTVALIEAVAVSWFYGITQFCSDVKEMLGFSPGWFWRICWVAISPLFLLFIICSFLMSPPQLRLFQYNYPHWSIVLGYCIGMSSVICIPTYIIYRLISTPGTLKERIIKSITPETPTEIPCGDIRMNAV
T1 sequence (P23977 whole entry): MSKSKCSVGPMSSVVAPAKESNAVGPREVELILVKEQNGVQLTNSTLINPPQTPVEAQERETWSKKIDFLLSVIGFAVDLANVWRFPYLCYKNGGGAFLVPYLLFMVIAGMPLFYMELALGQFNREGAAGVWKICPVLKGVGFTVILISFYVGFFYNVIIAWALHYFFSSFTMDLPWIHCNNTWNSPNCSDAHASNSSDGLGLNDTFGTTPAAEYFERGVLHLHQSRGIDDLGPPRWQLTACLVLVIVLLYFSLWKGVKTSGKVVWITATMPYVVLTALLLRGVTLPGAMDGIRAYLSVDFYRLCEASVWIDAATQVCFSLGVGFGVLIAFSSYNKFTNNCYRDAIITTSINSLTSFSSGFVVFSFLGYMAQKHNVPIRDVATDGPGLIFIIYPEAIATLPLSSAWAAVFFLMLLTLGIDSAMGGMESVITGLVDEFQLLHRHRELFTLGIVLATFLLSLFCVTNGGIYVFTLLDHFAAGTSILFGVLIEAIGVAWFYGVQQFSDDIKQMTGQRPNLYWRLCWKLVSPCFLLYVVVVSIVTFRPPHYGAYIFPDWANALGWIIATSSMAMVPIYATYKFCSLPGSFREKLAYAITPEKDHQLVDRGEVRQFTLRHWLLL
As for `Cc1ccc(C2C[C@H]3CCC([C@H]2c2cc(-c4ccccc4)no2)N3C)cc1` (some centres not stated), the half-inhibitory concentration (IC50) was 1.58 nM.
On the same count and under the same terms, next, `CN1C2CC[C@@H]1CC(c1ccc(Cl)cc1)[C@@H]2c1ncc(-c2ccccc2)s1` (some centres not stated): 5.71 nM; `Cc1cc([C@H]2C(c3ccc(Cl)cc3)C[C@H]3CCC2N3C)on1` (some centres not stated): 0.59 nM.
As for `CN1C2CCC1[C@@H](c1nnc(-c3ccccc3)s1)C(c1ccc(Cl)cc1)C2` (some centres not stated), the IC50 worked out at 15.3 nM. Compared with the last compound, the IC50 is about 26-fold higher.
The same measure, in the same setting: to `Cc1ccc(C2C[C@H]3CCC([C@H]2c2nn[nH]n2)N3C)cc1` (some centres not stated) belongs 1560 nM; to `Cc1ccc(C2C[C@H]3CCC([C@H]2c2nnc(C)o2)N3C)cc1` (some centres not stated), 4.45 nM; to `CN1C2CC[C@@H]1CC(c1ccc(Cl)cc1)[C@H]2c1nc2ccccc2s1` (some centres not stated), 188 nM.
The same measure, in the same setting: next, `CN1C2CC[C@@H]1CC(c1ccc(Cl)cc1)[C@@H]2c1nnc(-c2ccccc2)o1` (some centres not stated): 12.6 nM; `Cc1ccc(C2C[C@H]3CCC([C@H]2C(=O)Oc2ccccc2)N3C)cc1` (some centres not stated): 3.26 nM; `Cc1ccc(C2C[C@H]3CCC([C@@H]2c2nnc(-c4ccccc4)o2)N3C)cc1` (some centres not stated): 523 nM.
On the same count and under the same terms, to `Cc1ccc(C2C[C@H]3CCC([C@H]2c2ncc(-c4ccccc4)o2)N3C)cc1` (some centres not stated) belongs 35.4 nM; to `CN1C2CC[C@@H]1CC(c1ccc(Cl)cc1)[C@@H]2c1nc2ccccc2s1` (some centres not stated), 1.37 nM; to `CN1C2CCC1[C@@H](c1nc(-c3ccccc3)no1)C(c1ccc(Cl)cc1)C2` (some centres not stated), 1.62 nM.
As to `Cc1ccc(C2C[C@H]3CCC([C@H]2c2nnc(-c4ccccc4)s2)N3C)cc1` (some centres not stated), the IC50 was found to be 35.9 nM.
Turning to `CN1C2CC[C@@H]1CC(c1ccc(Cl)cc1)[C@@H]2C(=O)O` (some centres not stated), the IC50 came out at 2070 nM.
For `CN1C2CC[C@@H]1CC(c1ccc(I)cc1)[C@@H]2c1cc(-c2ccccc2)no1` (some centres not stated), the IC50 was 2.57 nM.
`CN1C2CC[C@@H]1CC(c1ccc(Cl)cc1)[C@H]2c1nnc(-c2ccccc2)o1` (some centres not stated) yielded an IC50 of 1100 nM.
`CN1C2CC[C@@H]1CC(c1ccc(Cl)cc1)[C@@H]2c1cc(-c2ccccc2)no1` (some centres not stated): the IC50 was 1.28 nM.
Turning to `Cc1ccc(C2C[C@H]3CCC([C@H]2c2nnc(-c4ccccc4)o2)N3C)cc1` (some centres not stated), the IC50 was determined as 47.5 nM.
Take `CN1C2CCC1[C@@H](c1ncc(-c3ccccc3)o1)C(c1ccc(Cl)cc1)C2` (some centres not stated): the IC50 worked out at 19.7 nM.
Same read-out and setting: to `Cc1ccc(C2C[C@H]3CCC([C@H]2c2cc(C)no2)N3C)cc1` (some centres not stated) belongs 0.93 nM; to `Cc1ccc(C2C[C@H]3CCC([C@H]2c2nc(-c4ccccc4)no2)N3C)cc1` (some centres not stated), 2.33 nM; to `Cc1cc([C@H]2C(c3ccc(I)cc3)C[C@H]3CCC2N3C)on1` (some centres not stated), 0.73 nM.
On the same count and under the same terms, to `CN1C2CC[C@@H]1CC(c1ccc(Cl)cc1)[C@@H]2C(=O)Oc1ccccc1` (some centres not stated) belongs 1.98 nM.

The target of another assay is T1, Sodium-dependent dopamine transporter. The assay can be described thus: Ability to inhibit [3H]dopamine uptake into rat striatal synaptosomes. It counts as subcellular, Brain.
In the case of `CN1C2CC[C@@H]1CC(c1ccc(Cl)cc1)[C@@H]2c1nnc(-c2ccccc2)o1` (some centres not stated), the Ki was 18.7 nM.
Same read-out and setting: next, `CN1C2CCC1[C@@H](c1nc(-c3ccccc3)no1)C(c1ccc(Cl)cc1)C2` (some centres not stated): 0.59 nM; `CN1C2CC[C@@H]1CC(c1ccc(Cl)cc1)[C@@H]2c1cc(-c2ccccc2)no1` (some centres not stated): 2.08 nM; `CN1C2CCC1[C@@H](c1ncc(-c3ccccc3)o1)C(c1ccc(Cl)cc1)C2` (some centres not stated): 19 nM.

Another assay shares this target. Briefly: Ability to inhibition uptake of […].
With `CN1C2CC[C@@H]1CC(c1ccc(Cl)cc1)[C@@H]2C(=O)Oc1ccccc1` (some centres not stated), the Ki was found to be 5.25 nM. In other words, the single-digit nanomolar range.

A further assay deals with Norepinephrine transporter (Rattus norvegicus, UniProt Q9WTR4). The assay can be described thus: Binding affinity against Norepinephrine transporter using [3H]nisoxetine in midbrain of rat. In kind it is tissue-based.
Sequence of Norepinephrine transporter (Q9WTR4 whole entry): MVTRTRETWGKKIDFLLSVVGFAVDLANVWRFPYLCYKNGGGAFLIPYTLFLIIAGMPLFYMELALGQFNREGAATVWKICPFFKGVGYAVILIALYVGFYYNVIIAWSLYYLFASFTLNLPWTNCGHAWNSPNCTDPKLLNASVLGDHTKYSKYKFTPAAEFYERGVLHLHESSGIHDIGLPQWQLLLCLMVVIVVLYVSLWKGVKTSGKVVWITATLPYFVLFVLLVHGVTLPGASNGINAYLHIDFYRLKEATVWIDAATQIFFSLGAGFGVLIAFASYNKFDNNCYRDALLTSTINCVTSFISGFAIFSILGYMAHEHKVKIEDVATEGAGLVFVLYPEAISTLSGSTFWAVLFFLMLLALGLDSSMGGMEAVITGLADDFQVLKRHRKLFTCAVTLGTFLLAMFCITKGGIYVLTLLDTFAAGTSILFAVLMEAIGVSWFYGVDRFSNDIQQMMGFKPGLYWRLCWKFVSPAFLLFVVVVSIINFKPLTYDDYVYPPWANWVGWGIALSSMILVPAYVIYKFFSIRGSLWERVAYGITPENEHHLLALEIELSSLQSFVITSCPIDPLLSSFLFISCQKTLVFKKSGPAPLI
As for `COC(=O)[C@@H]1C2CC[C@H](C[C@@H]1c1ccc(C)cc1)N2C`, the half-inhibitory concentration (IC50) stood at 60 nM.
On to `Cc1ccc(C2C[C@H]3CCC([C@H]2c2cc(-c4ccccc4)no2)N3C)cc1` (some centres not stated), for which the IC50 turned out to be 398 nM.
The same measure, in the same setting: next, `CN1C2CC[C@@H]1CC(c1ccc(Cl)cc1)[C@@H]2c1ncc(-c2ccccc2)s1` (some centres not stated): 8560 nM; `Cc1cc([C@H]2C(c3ccc(Cl)cc3)C[C@H]3CCC2N3C)on1` (some centres not stated): 181 nM.
Turning to `CN1C2CCC1[C@@H](c1nnc(-c3ccccc3)s1)C(c1ccc(Cl)cc1)C2` (some centres not stated), the IC50 is 4140 nM. This IC50 lies about 23-fold higher than the previous one.
`Cc1ccc(C2C[C@H]3CCC([C@H]2c2nn[nH]n2)N3C)cc1` (some centres not stated) showed an IC50 of 32500 nM. This IC50 lies about 7.9-fold higher than the previous one.
On the same count and under the same terms, to `CN1C2CC[C@@H]1CC(c1ccc(Cl)cc1)[C@@H]2c1nnn[nH]1` (some centres not stated) belongs 17400 nM; to `Cc1ccc(C2C[C@H]3CCC([C@H]2c2nnc(C)o2)N3C)cc1` (some centres not stated), 253 nM.
Same read-out and setting: next, `CN1C2CC[C@@H]1CC(c1ccc(Cl)cc1)[C@H]2c1nc2ccccc2s1` (some centres not stated): 59500 nM.
Same read-out and setting: to `CN1C2CC[C@@H]1CC(c1ccc(Cl)cc1)[C@@H]2c1nnc(-c2ccccc2)o1` (some centres not stated) belongs 929 nM.
Compound `Cc1ccc(C2C[C@H]3CCC([C@H]2C(=O)Oc2ccccc2)N3C)cc1` (some centres not stated) yielded a half-maximal inhibitory concentration (IC50) of 5800 nM.
Still for that read-out and setting: to `Cc1ccc(C2C[C@H]3CCC([C@@H]2c2nnc(-c4ccccc4)o2)N3C)cc1` (some centres not stated) belongs 48700 nM; to `Cc1ccc(C2C[C@H]3CCC([C@H]2c2ncc(-c4ccccc4)o2)N3C)cc1` (some centres not stated), 677 nM; to `CN1C2CC[C@@H]1CC(c1ccc(Cl)cc1)[C@@H]2c1nc2ccccc2s1` (some centres not stated), 403 nM.
On to `CN1C2CCC1[C@@H](c1nc(-c3ccccc3)no1)C(c1ccc(Cl)cc1)C2` (some centres not stated), for which the half-maximal inhibitory concentration (IC50) was 245 nM.
Regarding `Cc1ccc(C2C[C@H]3CCC([C@H]2c2nnc(-c4ccccc4)s2)N3C)cc1` (some centres not stated), the 50% inhibitory concentration (IC50) came out at 24300 nM.
On the same count and under the same terms, next, `CN1C2CC[C@@H]1CC(c1ccc(Cl)cc1)[C@@H]2C(=O)O` (some centres not stated): > 200000 nM; `CN1C2CC[C@@H]1CC(c1ccc(I)cc1)[C@@H]2c1cc(-c2ccccc2)no1` (some centres not stated): 868 nM; `CN1C2CC[C@@H]1CC(c1ccc(Cl)cc1)[C@H]2c1nnc(-c2ccccc2)o1` (some centres not stated): 286000 nM.
Still for that read-out and setting: to `CN1C2CC[C@@H]1CC(c1ccc(Cl)cc1)[C@@H]2c1cc(-c2ccccc2)no1` (some centres not stated) belongs 504 nM.
In turn, `Cc1ccc(C2C[C@H]3CCC([C@H]2c2nnc(-c4ccccc4)o2)N3C)cc1` (some centres not stated) yielded an IC50 of 1310 nM.
The compound `CN1C2CCC1[C@@H](c1ncc(-c3ccccc3)o1)C(c1ccc(Cl)cc1)C2` (some centres not stated) displayed an IC50 of 496 nM. This IC50 is about 2.6-fold lower than that of the compound before.
On the same count and under the same terms, to `Cc1ccc(C2C[C@H]3CCC([C@H]2c2cc(C)no2)N3C)cc1` (some centres not stated) belongs 254 nM.
On the same count and under the same terms, to `Cc1ccc(C2C[C@H]3CCC([C@H]2c2nc(-c4ccccc4)no2)N3C)cc1` (some centres not stated) belongs 60 nM; to `Cc1cc([C@H]2C(c3ccc(I)cc3)C[C@H]3CCC2N3C)on1` (some centres not stated), 67.9 nM; to `CN1C2CC[C@@H]1CC(c1ccc(Cl)cc1)[C@@H]2C(=O)Oc1ccccc1` (some centres not stated), 2950 nM.
On the same count and under the same terms, next, `Cc1noc([C@H]2C(c3ccc(Cl)cc3)C[C@H]3CCC2N3C)n1` (some centres not stated): 363 nM.

Another assay concerns the target Sodium-dependent serotonin transporter (Rattus norvegicus, UniProt P31652). The assay can be described thus: Binding affinity against serotonin transporter using [3H]paroxetine in rat frontal cortex. In kind it is tissue-based.
With `Cc1ccc(C2C[C@H]3CCC([C@H]2c2cc(-c4ccccc4)no2)N3C)cc1` (some centres not stated), the IC50 was determined as 5110 nM.
Still for that read-out and setting: next, `CN1C2CC[C@@H]1CC(c1ccc(Cl)cc1)[C@@H]2c1ncc(-c2ccccc2)s1` (some centres not stated): 10300 nM; `Cc1cc([C@H]2C(c3ccc(Cl)cc3)C[C@H]3CCC2N3C)on1` (some centres not stated): 572 nM.
For the compound `CN1C2CCC1[C@@H](c1nnc(-c3ccccc3)s1)C(c1ccc(Cl)cc1)C2` (some centres not stated), the IC50 is 18400 nM.
Same read-out and setting: to `Cc1ccc(C2C[C@H]3CCC([C@H]2c2nn[nH]n2)N3C)cc1` (some centres not stated) belongs 43600 nM; to `CN1C2CC[C@@H]1CC(c1ccc(Cl)cc1)[C@@H]2c1nnn[nH]1` (some centres not stated), 5460 nM; to `Cc1ccc(C2C[C@H]3CCC([C@H]2c2nnc(C)o2)N3C)cc1` (some centres not stated), 4890 nM.
On the same count and under the same terms, next, `CN1C2CC[C@@H]1CC(c1ccc(Cl)cc1)[C@H]2c1nc2ccccc2s1` (some centres not stated): 5210 nM.
Turning to `CN1C2CC[C@@H]1CC(c1ccc(Cl)cc1)[C@@H]2c1nnc(-c2ccccc2)o1` (some centres not stated), the IC50 is 3300 nM.
Same read-out and setting: to `Cc1ccc(C2C[C@H]3CCC([C@H]2C(=O)Oc2ccccc2)N3C)cc1` (some centres not stated) belongs 24500 nM; to `Cc1ccc(C2C[C@H]3CCC([C@@H]2c2nnc(-c4ccccc4)o2)N3C)cc1` (some centres not stated), 65000 nM.
In turn, `Cc1ccc(C2C[C@H]3CCC([C@H]2c2ncc(-c4ccccc4)o2)N3C)cc1` (some centres not stated) returned a concentration for half-maximal inhibition (IC50) of 1700 nM. Against the preceding compound, the IC50 is about 38-fold lower.
Same read-out and setting: to `CN1C2CC[C@@H]1CC(c1ccc(Cl)cc1)[C@@H]2c1nc2ccccc2s1` (some centres not stated) belongs 1120 nM; to `CN1C2CCC1[C@@H](c1nc(-c3ccccc3)no1)C(c1ccc(Cl)cc1)C2` (some centres not stated), 195 nM.
Same read-out and setting: to `Cc1ccc(C2C[C@H]3CCC([C@H]2c2nnc(-c4ccccc4)s2)N3C)cc1` (some centres not stated) belongs 51500 nM.
Same read-out and setting: next, `CN1C2CC[C@@H]1CC(c1ccc(Cl)cc1)[C@@H]2C(=O)O` (some centres not stated): 59500 nM; `CN1C2CC[C@@H]1CC(c1ccc(I)cc1)[C@@H]2c1cc(-c2ccccc2)no1` (some centres not stated): 100 nM; `CN1C2CC[C@@H]1CC(c1ccc(Cl)cc1)[C@H]2c1nnc(-c2ccccc2)o1` (some centres not stated): 19200 nM.
Turning to `CN1C2CC[C@@H]1CC(c1ccc(Cl)cc1)[C@@H]2c1cc(-c2ccccc2)no1` (some centres not stated), the IC50 turned out to be 2420 nM.
Still for that read-out and setting: next, `Cc1ccc(C2C[C@H]3CCC([C@H]2c2nnc(-c4ccccc4)o2)N3C)cc1` (some centres not stated): 23300 nM; `CN1C2CCC1[C@@H](c1ncc(-c3ccccc3)o1)C(c1ccc(Cl)cc1)C2` (some centres not stated): 1120 nM.
On the same count and under the same terms, next, `Cc1ccc(C2C[C@H]3CCC([C@H]2c2cc(C)no2)N3C)cc1` (some centres not stated): 3820 nM; `Cc1ccc(C2C[C@H]3CCC([C@H]2c2nc(-c4ccccc4)no2)N3C)cc1` (some centres not stated): 1070 nM.
The same measure, in the same setting: next, `Cc1cc([C@H]2C(c3ccc(I)cc3)C[C@H]3CCC2N3C)on1` (some centres not stated): 36.4 nM; `CN1C2CC[C@@H]1CC(c1ccc(Cl)cc1)[C@@H]2C(=O)Oc1ccccc1` (some centres not stated): 2300 nM; `Cc1noc([C@H]2C(c3ccc(Cl)cc3)C[C@H]3CCC2N3C)n1` (some centres not stated): 2580 nM.
